Reference: patent publication US20040253292A1, “MR-signal emitting coatings” (Wisconsin Alumni Research Foundation, priority 2003, published 2004)

Test: Diffusion of a fluorescent probe in swollen gelatin gel (FRAP)
Format: physicochemical
Conditions: coating thickness 60 μm; diffusion coefficient 9×10^ m^2s^−1
Excerpt: To assess the stability of DTPA[Gd(III)] in the gelatin coating, the diffusion of a fluorescence probe in gelatin was studied by the technique of fluorescence recovery after photobleaching (FRAP). The instrument and data analysis scheme are described in Kim, S. H. and Yu, H., J. Phys. Chem. 1992, 96, 4034, which is hereby fully incorporated by reference. Fluorescein was used as the fluorescence probe due, in part, to its molecular size being roughly the same as that of DTPA[Gd(III)].
The focus of the study was to examine the possible retardation effects of gelatin concentration and cross-link density on the diffusion, which was determined at room temperature, i.e., below the gel point of gelatin. The diffusion of fluorescein probe slows down with the increase of gelatin concentration. The diffusion coefficient decreases from 1.5×10^−10 to 9×10^−12 m^2s^−1 when the concentration of gelatin increases from 9% to 40%. […] Accordingly, the probe diffusion is more likely controlled by the concentration of gelatin rather than the cross-link density. On the other hand, the cross-link density may determine the swelling ratio of gelatin, i.e., the concentration of gelatin in aqueous solution. […]

time to diffuse out of the gelatin coating: about 67 seconds
SMILES: O=C(O)CN(CCN(CC(=O)O)CC(=O)O)CCN(CC(=O)O)CC(=O)O [DTPA, diethylenetriaminepentaacetic acid]
